Assay results published in PubChem BioAssay (NCI).
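Cultured in 96-well plates, cells were exposed to test compound for 48 hours across five concentrations. TGI denotes the concentration required for complete inhibition of growth.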

How the values were obtained:
Assay in all cases: DTP human tumour cell line panel, 48 h
[1] = tested on: HCC-2998 colon
[2] = tested on: SK-MEL-2 melanoma
[3] = tested on: U251 CNS
[4] = tested on: NCI-H460 lung
[5] = tested on: M14 melanoma
[6] = tested on: MDA-MB-231 breast
[7] = tested on: ACHN renal
[8] = tested on: SK-MEL-28 melanoma
[9] = tested on: NCI-H23 lung
[10] = tested on: RPMI-8226 leukemia
[11] = tested on: MCF7 breast
[12] = tested on: DU-145 prostate
[13] = tested on: HS 578T breast
[14] = tested on: HT29 colon
[15] = tested on: SR leukemia
[16] = tested on: A498 renal
[17] = tested on: COLO 205 colon
[18] = tested on: HL-60(TB) leukemia
[19] = tested on: OVCAR-3 ovarian
[20] = tested on: NCI/ADR-RES ovarian
[21] = tested on: SF-268 CNS
[22] = tested on: EKVX NSCLC
[23] = tested on: SW-620 colon
[24] = tested on: SK-MEL-5 melanoma
[25] = tested on: LOX IMVI melanoma
[26] = tested on: HCT-15 colon
[27] = tested on: UACC-62 melanoma
[28] = tested on: HOP-92 NSCLC
[29] = tested on: HCT-116 colon
[30] = tested on: SF-295 CNS
[31] = tested on: OVCAR-5 ovarian
[32] = tested on: RXF 393 renal
[33] = tested on: NCI-H522 lung
[34] = tested on: NCI-H226 lung
[35] = tested on: PC-3 prostate
[36] = tested on: IGROV1 ovarian
[37] = tested on: MOLT-4 leukemia
[38] = tested on: TK-10 renal
[39] = tested on: CCRF-CEM leukemia
[40] = tested on: SF-539 CNS
[41] = tested on: SN12C renal
[42] = tested on: T-47D breast
[43] = tested on: KM12 colon
[44] = tested on: OVCAR-8 ovarian
[45] = tested on: BT-549 breast
[46] = tested on: 786-0 renal
[47] = tested on: UACC-257 melanoma
[48] = tested on: OVCAR-4 ovarian
[49] = tested on: SNB-19 CNS
[50] = tested on: K-562 leukemia
[51] = tested on: MDA-MB-435
[52] = tested on: HOP-62 NSCLC
[53] = tested on: UO-31 renal
[54] = tested on: CAKI-1 renal

Structure (SMILES): O=c1oc2ccccc2c2c1Sc1ccccc1N2
- TGI [1]: > 100 µM
- TGI [2]: > 100 µM
- TGI [3]: > 100 µM
- TGI [4]: > 100 µM
- TGI [5]: > 100 µM
- TGI [6]: > 100 µM
- TGI [7]: > 100 µM
- TGI [8]: > 100 µM
- TGI [9]: > 100 µM
- TGI [10]: > 100 µM
- TGI [11]: > 100 µM
- TGI [12]: > 100 µM
- TGI [13]: > 100 µM
- TGI [14]: > 100 µM
- TGI [15]: > 100 µM
- TGI [16]: > 100 µM
- TGI [17]: > 100 µM
- TGI [18]: > 100 µM
- TGI [19]: > 100 µM
- TGI [20]: > 100 µM
- TGI [21]: > 100 µM
- TGI [22]: > 100 µM
- TGI [23]: > 100 µM
- TGI [24]: > 100 µM
- TGI [25]: > 100 µM
- TGI [26]: > 100 µM
- TGI [27]: > 100 µM
- TGI [28]: > 100 µM
- TGI [29]: > 100 µM
- TGI [30]: > 100 µM
- TGI [31]: > 100 µM
- TGI [32]: > 100 µM
- TGI [33]: > 100 µM
- TGI [34]: > 100 µM
- TGI [35]: > 100 µM
- TGI [36]: > 100 µM
- TGI [37]: > 100 µM
- TGI [38]: > 100 µM
- TGI [39]: > 100 µM
- TGI [40]: > 100 µM
- TGI [41]: > 100 µM
- TGI [42]: 45.1 µM
- TGI [43]: > 100 µM
- TGI [44]: > 100 µM
- TGI [45]: > 100 µM
- TGI [46]: > 100 µM
- TGI [47]: > 100 µM
- TGI [48]: > 100 µM
- TGI [49]: > 100 µM
- TGI [50]: > 100 µM
- TGI [51]: > 100 µM
- TGI [52]: > 100 µM
- TGI [53]: > 100 µM
- TGI [54]: > 100 µM
